Measurements: patent US20210145768A1, “MODULATING IMMUNE RESPONSE VIA TARGETING OF OLFACTORY RECEPTOR ACTIVITY” (La Jolla Institute for Allergy and Immunology, priority 2018, published 2021)

How the values were obtained:
Olfr2 [1] = biological target: T1, Olfr2 (Mus musculus, UniProt Q9QWU6); assay: Intracellular TNF staining in vascular macrophages and blood monocytes (flow cytometry); type: cell-based; set-up: Olfr2 expression was confirmed at the protein level on F4/80^+ vascular macrophages; from tissue; host or cells: explanted whole aortas, digested aortic cell suspensions (F4/80+ vascular macrophages) and blood monocytes of Apoe-/- C57BL/6J mice; living Apoe-/- mice for the in vivo study; conditions: octanal
T1 sequence (Q9QWU6 1-327): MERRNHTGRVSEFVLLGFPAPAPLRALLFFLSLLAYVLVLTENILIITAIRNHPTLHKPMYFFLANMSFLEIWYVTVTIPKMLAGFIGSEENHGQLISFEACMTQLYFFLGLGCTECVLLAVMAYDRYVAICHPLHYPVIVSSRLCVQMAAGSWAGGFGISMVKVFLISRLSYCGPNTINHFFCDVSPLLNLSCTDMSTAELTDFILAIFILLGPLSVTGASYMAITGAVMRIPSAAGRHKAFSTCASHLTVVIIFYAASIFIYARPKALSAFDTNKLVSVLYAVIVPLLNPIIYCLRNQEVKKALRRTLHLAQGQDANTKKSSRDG
Method: To assess the functional properties of Olfr2 in monocytes, cells were enriched form Apoe−/− mice blood by the negative selection. Purified monocytes were then incubated as described above. TNF expression (TNF-PE) was evaluate by intracellular staining protocol by flow cytometry. Classical and non-classical monocytes were divided as previously described (Live, CD115+, LyC6+, and LyC6− respectively). […] Data are presented as means±SEM. *p<0.05, **p<0.01, ***p<0.005, ****p<0.001. p calculated by One-Way ANOVA test, Tukey's multiple comparisons test.
Whole aortas and mouse blood leukocytes were incubated in culture medium with Oct, (10 μM), LPS, (500 ng/mL) alone or combined (LPS+Oct) for 12h at 37° C. and 5% CO2. The protein transport inhibitor cocktail 1× (eBioscience) was added for whole 12h in the whole aorta samples and for the last 6 hours in the mouse blood leukocyte samples. […]
Cells were then washed, fixed, permeabilized applying the Intracellular Fixation and Permeabilization Buffer Set (eBioscience), and stained with mouse anti-TNF-PE (eBioscience). Samples were analyzed with LSR-II (BD Biosciences). Data was acquired with FACSDiva software (BD Biosciences) and analyzed with FlowJo software (Treestar Inc).

OR6A2 = OR6A2 expression in hMDMs (real time PCR, flow cytometry); type: cell-based, human; conditions: LPS + octanal
Method: BMDMs and hMDMs were incubated in culture media for 12 h at 37° C. and 5% CO2 with Oct, (10 μM), LPS (500 ng/mL) alone or combined with Oct (LPS+Oct) and DMSO (0.1%) as a control and lysed with Qiazol (500 μL; Qiagen) Similarly, whole aortas incubated as previously described were transferred into Qiazol (500 μl; Qiagen) and digested with gentleMACS™ Dissociator (Miltenyi).
Total RNA was quantified using a nanodrop spectrophotometer (Peqlab) and 500 ng were reverse transcribed into cDNA using Omniscript reverse transcriptase (Qiagen). Real time PCR reactions were performed according to the RT^2 SYBR green gene expression assay protocol (Qiagen). RT2 SYBR Green qPCR master mix and premade RT^2 qPCR Primer Assays for mouse Olfr2, Rtp1, Rtp2, Ccl2, Ccl4, Tnf, Nos2 and Gapdh were used. Similarly, real time PCR analysis of hMDMs samples was performed following the RT^2 SYBR green gene expression assay protocol (Qiagen), applying RT^2 SYBR Green qPCR master mix and premade RT^2 qPCR Primer Assays for human OR6A2, TNF, IL-6, NOS2 and GAPDH. The results were calculated applying the 2^−ΔΔCT method^32 using Gapdh/GAPDH as housekeeping gene.
BMDMs, hMDMs, mouse blood leukocytes and whole mount aortas were incubated in culture medium with Oct, (10 μM), LPS, (500 ng/mL) alone or combined (LPS+Oct) for 12h at 37° C. and 5% CO2. […]

Olfr2 [2] = biological target: T1, Olfr2; assay: Secreted cytokines in supernatants of stimulated aortas (cytokine bead array); type: cell-based; set-up: Olfr2 expression was confirmed at the protein level on F4/80^+ vascular macrophages; from tissue; host or cells: explanted whole aortas, digested aortic cell suspensions (F4/80+ vascular macrophages) and blood monocytes of Apoe-/- C57BL/6J mice; living Apoe-/- mice for the in vivo study; conditions: octanal 10 μM + LPS 500 ng/mL, 12 h, cytometric bead array
Method: Apoe^−/− mice were fed WD for 2 weeks before sacrifice for aorta explant culture. Whole aortas were incubated in culture medium with DMSO (0.1% as a vehicle), octanal (Oct, 10 μM), LPS (500 ng/mL) alone or octanal and LPS combined (LPS+Oct) for 12 h at 37° C. and 5% CO2. Subsequently, aortas were collected and further processed as below discussed for RNA extraction, and flow cytometry analysis. Culture supernatants were collected, aliquoted, and frozen at −80° C. until further analysis.
Supernatants of stimulated cells and aortic tissue were analyzed by BD CBA Flex Sets (BD Biosciences) for mouse TNFα, CCL2, CCL4, IL-1β, or human TNF, IL6, and IL-1β according to the manufacturer's protocol. Samples were analyzed with LSR-II (BD Biosciences). Data was acquired with FACSDiva software (BD Biosciences) and analyzed with FCAP array software 3.0 (BD Biosciences).

Olfr2 [3] = biological target: T1, Olfr2; conditions: Olfr2 binding of medium-chain aliphatic aldehydes; cited from earlier work

CCCCCCCC=O [octanal]
TNF expression in Ly6C+ and Ly6C− blood monocytes (Olfr2 [1]): boosted | OR6A2 mRNA expression in hMDMs (OR6A2): further augmented | secretion of TNF, CCL2 and CCL4 protein into supernatant of treated aortas (Olfr2 [2]): enhanced production | secretion of TNF, CCL2 and CCL4 protein into supernatant of treated aortas (Olfr2 [2]; listed as Octanal): enhanced the secretion | EC50 (Olfr2 [3]): ~10 µM
